Measured values: US11878276B2, “Nanobiocatalyst and nanobiocatalytic membrane” (University of Vermont and State Agricultural College, priority 2017, dated 2024)

Test system: Gram positive and Gram negative bacteria
Assay: minimum inhibitory concentration of bismuth
Format: cell-based
Procedure: In particular, in one embodiment, antimicrobial lipophilic bismuth dimercaptopropanol nanoparticles (BisBAL NPs) may be used. In one embodiment, the bismuth concentration on the membrane surface may be approximately 0.437 g/m^2. In one embodiment, the toxic range of Bi^+3 concentration (minimum inhibitory concentration) for Gram positive and Gram negative bacteria is 15-16 μM. […] In one embodiment, the bismuth nanoparticles are roughly spherical and are approximately 20 nm wide. […] In another embodiment, other antibacterial nanoparticles are also contemplated, such as, but not limited to Zinc Oxide (ZnO), Copper Oxide (CuO), Iron Oxide (Fe2O3), and Silver (Ag).

## [Bi+3] [Bi^+3]
  toxic range of Bi^+3 concentration (minimum inhibitory concentration): 15 to 16 µM
